Biological target: T1, human recombinant HDAC6 (Homo sapiens, UniProt Q9UBN7)
T1 construct: purchased Calbiochem 382180
T1 sequence (Q9UBN7 1-1215): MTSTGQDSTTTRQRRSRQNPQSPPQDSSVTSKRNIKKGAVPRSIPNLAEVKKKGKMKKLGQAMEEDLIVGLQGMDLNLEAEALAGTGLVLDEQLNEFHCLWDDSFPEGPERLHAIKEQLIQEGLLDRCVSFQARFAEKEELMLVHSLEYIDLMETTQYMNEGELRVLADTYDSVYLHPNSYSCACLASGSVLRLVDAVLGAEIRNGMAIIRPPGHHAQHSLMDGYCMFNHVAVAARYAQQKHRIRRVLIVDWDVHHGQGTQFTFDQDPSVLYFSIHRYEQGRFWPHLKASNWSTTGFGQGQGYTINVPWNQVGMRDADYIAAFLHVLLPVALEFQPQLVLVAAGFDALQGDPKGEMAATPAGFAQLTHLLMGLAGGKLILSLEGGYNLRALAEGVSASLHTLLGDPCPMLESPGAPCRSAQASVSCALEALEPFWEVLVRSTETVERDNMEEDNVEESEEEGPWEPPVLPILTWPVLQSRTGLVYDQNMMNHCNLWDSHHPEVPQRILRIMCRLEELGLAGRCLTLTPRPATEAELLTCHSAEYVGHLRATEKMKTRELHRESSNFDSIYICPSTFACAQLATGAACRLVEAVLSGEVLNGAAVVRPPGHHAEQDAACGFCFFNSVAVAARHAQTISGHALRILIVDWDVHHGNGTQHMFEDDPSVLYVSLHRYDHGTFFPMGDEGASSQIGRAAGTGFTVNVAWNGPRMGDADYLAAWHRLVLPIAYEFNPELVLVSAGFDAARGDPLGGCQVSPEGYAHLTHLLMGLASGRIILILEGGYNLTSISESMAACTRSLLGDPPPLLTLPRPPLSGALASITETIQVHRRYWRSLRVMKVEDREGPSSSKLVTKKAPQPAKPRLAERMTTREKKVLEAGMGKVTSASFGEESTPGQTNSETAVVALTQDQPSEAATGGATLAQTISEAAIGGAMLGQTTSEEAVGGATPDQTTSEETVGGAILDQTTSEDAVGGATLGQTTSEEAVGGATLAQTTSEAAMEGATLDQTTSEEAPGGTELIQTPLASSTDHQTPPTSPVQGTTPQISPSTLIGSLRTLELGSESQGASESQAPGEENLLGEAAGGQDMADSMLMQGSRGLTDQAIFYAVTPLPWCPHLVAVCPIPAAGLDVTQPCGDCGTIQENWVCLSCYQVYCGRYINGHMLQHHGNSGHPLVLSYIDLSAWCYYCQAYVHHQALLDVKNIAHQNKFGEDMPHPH
Assay: HDAC6 enzyme activity inhibition assay (HDAC Fluorimetric Drug Discovery Kit)
Type: biochemical
Conditions: for HDAC6 selectivity (fold): HDAC1 vs HDAC6; for IC50: same protocol as the HDAC1 enzyme activity test
Procedure, shortened: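 Recombinant enzyme (0.3 μg) was incubated with 5-fold serially diluted compound and 10 μM Fluor de Lys-SIRT1 substrate for 60 min at 30° C. Developer II was then added for 30 min, fluorescence read at Ex 360/Em 460, and IC50 values were calculated.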

HDAC6 selectivity (fold)	IC50 [nM]	Structure (SMILES)
1587	63	C[C@@H]1CN(CCS(=O)(=O)N(Cc2ccc(-c3nnc(C(F)F)o3)cc2)c2ccccc2)C[C@H](C)N1 [Compound 11632, N-(4-(5-(difluoromethyl)-1,3,4-oxadiazol-2-yl)benzyl)-2-((3S,5R)-3,5-dimethylpiperazin-1-yl)-N-phenylethane-1-sulfonamide]
215	464	Cc1cccc(N(Cc2ccc(-c3nnc(C(F)F)o3)cc2)S(=O)(=O)C2CCN(C3CCC(F)(F)CC3)CC2)c1 [Compound 11694, 1-(4,4-difluorocyclohexyl)-N-(4-(5-(difluoromethyl)-1,3,4-oxadiazol-2-yl)benzyl)-N-(m-tolyl)piperidine-4-sulfonamide]
188	531	CC(C)c1nc2ccc(N(Cc3ccc(-c4nnc(C(F)F)o4)cc3)S(C)(=O)=O)cc2s1 [Compound 11744, N-(4-(5-(difluoromethyl)-1,3,4-oxadiazol-2-yl)benzyl)-N-(2-isopropylbenzo[d]thiazol-6-yl)methanesulfonamide]
216	461	CC(=O)N1Cc2ccc(N(Cc3ccc(-c4nnc(C(F)F)o4)cn3)S(C)(=O)=O)cc2C1 [Compound 11736, N-(2-acetylisoindolin-5-yl)-N-((5-(5-(difluoromethyl)-1,3,4-oxadiazol-2-yl)pyridin-2-yl)methyl)methanesulfonamide]
2790	35.8	O=S(=O)(C1CCN(C2CC(F)C2)CC1)N(Cc1ccc(-c2nnc(C(F)F)o2)cn1)c1cccc(Cl)c1 (stereo not shown) [Compound 11841, N-(3-chlorophenyl)-N-((5-(5-(difluoromethyl)-1,3,4-oxadiazol-2-yl)pyridin-2-yl)methyl)-1-(3-fluorocyclobutyl)piperidine-4-sulfonamide]
101	994	O=S(=O)(CCN1Cc2cccc3cccc(c23)C1)N(Cc1ccc(-c2nnc(C(F)F)o2)cc1)c1ccccc1 [Compound 11843, 2-(1H-benzo[de]isoquinolin-2(3H)-yl)-N-(4-(5-(difluoromethyl)-1,3,4-oxadiazol-2-yl)benzyl)-N-phenylethane-1-sulfonamide]
188	531	CS(=O)(=O)N(Cc1ccc(-c2nnc(C(F)F)o2)cc1)c1nc2ccccc2s1 [Compound 11740, N-(benzo[d]thiazol-2-yl)-N-(4-(5-(difluoromethyl)-1,3,4-oxadiazol-2-yl)benzyl)methanesulfonamide]
4545	22	COC(=O)CS(=O)(=O)N(Cc1ccc(-c2nnc(C(F)F)o2)cc1F)c1ccccc1 [Compound 11231, methyl 2-(N-(4-(5-(difluoromethyl)-1,3,4-oxadiazol-2-yl)-2-fluorobenzyl)-N-phenylsulfamoyl)acetate]
4545	22	CC(C)(O)CN1CCC(S(=O)(=O)N(Cc2ccc(-c3nnc(C(F)F)o3)cc2F)c2ccccc2)CC1 [Compound 11377, N-(4-(5-(difluoromethyl)-1,3,4-oxadiazol-2-yl)-2-fluorobenzyl)-1-(2-hydroxy-2-methylpropyl)-N-phenylpiperidine-4-sulfonamide]
198	504	Cc1cccc(N(Cc2ccc(-c3nnc(C(F)F)o3)cc2)S(=O)(=O)C2CCN(C3CC4CCC3C4)CC2)c1 (stereo not shown) [Compound 11693, 1-(bicyclo[2.2.1]heptan-2-yl)-N-(4-(5-(difluoromethyl)-1,3,4-oxadiazol-2-yl)benzyl)-N-(m-tolyl)piperidine-4-sulfonamide]
39	2530	CC(C)N1Cc2ccc(N(Cc3ccc(-c4nnc(C(F)F)o4)cc3)S(C)(=O)=O)cc2C1 [Compound 11730, N-(4-(5-(difluoromethyl)-1,3,4-oxadiazol-2-yl)benzyl)-N-(2-isopropylisoindolin-5-yl)methanesulfonamide]
781	128	Cc1ccc(N(Cc2ccc(-c3nnc(C(F)(F)F)o3)cc2F)S(C)(=O)=O)cc1 [Compound 11282, N-(2-fluoro-4-(5-(trifluoromethyl)-1,3,4-oxadiazol-2-yl)benzyl)-N-(p-tolyl)methanesulfonamide]
1605	62.3	NC(=O)[C@@H]1C[C@@H](O)CN1CCS(=O)(=O)N(Cc1ccc(-c2nnc(C(F)F)o2)cn1)c1ccccc1 [Compound 11849, (2S,4R)-1-(2-(N-((5-(5-(difluoromethyl)-1,3,4-oxadiazol-2-yl)pyridin-2-yl)methyl)-N-phenylsulfamoyl)ethyl)-4-hydroxypyrrolidine-2-carboxamide]
1050	95.2	CS(=O)(=O)N(Cc1ccc(-c2nnc(C(F)F)o2)cc1F)c1ccc2c(c1)CCC2 [Compound 11747, N-(4-(5-(difluoromethyl)-1,3,4-oxadiazol-2-yl)-2-fluorobenzyl)-N-(2,3-dihydro-1H-inden-5-yl)methanesulfonamide]
1377	72.6	CN(C)[C@H]1CCN(CCS(=O)(=O)N(Cc2ccc(-c3nnc(C(F)F)o3)cc2)c2ccccc2)C1 [Compound 11755, (S)—N-(4-(5-(difluoromethyl)-1,3,4-oxadiazol-2-yl)benzyl)-2-(3-(dimethylamino)pyrrolidin-1-yl)-N-phenylethane-1-sulfonamide]
2057	48.6	O=S(=O)(CCN1CCN(CCc2ccncc2)CC1)N(Cc1ccc(-c2nnc(C(F)F)o2)cc1)c1ccccc1 [Compound 11772, N-(4-(5-(difluoromethyl)-1,3,4-oxadiazol-2-yl)benzyl)-N-phenyl-2-(4-(2-(pyridin-4-yl)ethyl)piperazin-1-yl)ethane-1-sulfonamide]
4167	24	CCS(=O)(=O)N(Cc1ccc(-c2nnc(C(F)F)o2)cc1F)c1cccc2cnn(C)c12 [Compound 11522, N-(4-(5-(difluoromethyl)-1,3,4-oxadiazol-2-yl)-2-fluorobenzyl)-N-(1-methyl-1H-indazol-7-yl)ethanesulfonamide]
113	882	CS(=O)(=O)N(Cc1ccc(-c2nnc(C(F)F)o2)cc1F)c1nncs1 [Compound 11776, N-(4-(5-(difluoromethyl)-1,3,4-oxadiazol-2-yl)-2-fluorobenzyl)-N-(1,3,4-thiadiazol-2-yl)methanesulfonamide]
2241	44.6	CC(=O)N1CC(N2CCC(S(=O)(=O)N(Cc3ccc(-c4nnc(C(F)F)o4)cn3)c3cccc(C)c3)CC2)C1 [Compound 11838, 1-(1-acetylazetidin-3-yl)-N-((5-(5-(difluoromethyl)-1,3,4-oxadiazol-2-yl)pyridin-2-yl)methyl)-N-(m-tolyl)piperidine-4-sulfonamide]
2173	46	CC(=O)N1CCN(CCS(=O)(=O)N(Cc2ccc(-c3nnc(C(F)F)o3)cc2)c2ccccc2)CC1 [Compound 11633, 2-(4-acetylpiperazin-1-yl)-N-(4-(5-(difluoromethyl)-1,3,4-oxadiazol-2-yl)benzyl)-N-phenylethane-1-sulfonamide]
